Measurements: publication PMC9709425, “The inhibition of NCS-1 binding to Ric8a rescues fragile X syndrome mice model phenotypes” (Frontiers in Neuroscience, 2022)

Tests used:
NCS-1/Ric8a complex [1] = molecular target: T1, NCS-1/Ric8a complex (Homo sapiens, UniProt P62166); assay: In situ proximity ligation assay (PLA) of NCS-1 binding to Ric8a in HEK293 cells; assay type: cell-based; settings: FD44 20 μM
T1 construct: expressed in transfected cells; host or cells: HEK293
Procedure: Human embryonic kidney HEK293 cells were grown in Dulbecco's modified Eagle's medium supplemented with 2 mM L-glutamine, 100 U/ml penicillin/streptomycin, MEM non-essential amino acid solution (1/100), and 5% (v/v), and heat-inactivated fetal bovine serum (all from Thermo). The human NCS-1 and Ric8a-V5 constructs were previously generated (Mansilla et al., [2017]). Plasmids were co-transfected onto HEK293 using Lipofectamin 2000 (Thermo) following the manufacturer's instructions. Approximately 20 μM of FD44 diluted in dimethyl sulfoxide (DMSO) or the same volume of DMSO was added to culture cells 24 h after transfection.
For the in situ proximity ligation assay (PLA), cells were grown in coverslips and, after transfection and treatment, fixed for 20 min with a fixation reagent, and later permeabilized with a permeabilization reagent, all from the Intracellular Fixation and Permeabilization buffer set (eBioscience, Thermo). […] Finally, interactions were detected with Duolink in Situ PLA Green Detection kit (Sigma) following the manufacturer's instructions. Cover slips were mounted with ProLong reagent (Thermo) containing Hoescht, and staining was analyzed with a standard fluorescence microscope.
To better quantify the interaction, PLA was performed followed by flow cytometry. […] Cells were analyzed on FACS Canto II (BD Bioscience) with BD FACS Diva software.

[2] = Pharmacokinetic profile, plasma and brain, single dose in BALB/c WT mice; assay type: in vivo; settings: mouse
Procedure: The pharmacokinetic (PK) assay was performed by Sai Life Sciences Ltd. in BALB/c WT mice aged 8–12-months.
(§1) FD44 solution formulation in 5% NMP, 5% Solutol HS-15, 30% PEG-400, and 60% citric acid (10 mM) was administered in doses of 10 and 50 mg/kg dose intraperitoneally and orally, respectively. A single dose was administered to 8–12-month-old mice for PK and a daily intraperitoneal dose to 2-month-old mice for 4 weeks for further behavioral and biochemical studies. […] PK was performed in collaboration with Sai life Science Ltd. Blood samples were collected from retro-orbital plexus into ethylenediamine tetraacetic acid (EDTA) tubes from a set of three mice at each time point. Plasma was immediately harvested from the blood by centrifugation at 2,500 g for 10 min at 4°C. Immediately after collection of blood, brain samples were collected and homogenized using ice-cold phosphate buffer saline. Concentrations of FD44 in mouse plasma and brain samples were determined by the fit-for-purpose liquid chromatography with tandem mass spectrometry (LC-MS/MS) method. PK parameters were calculated using the non-compartmental analysis tool of Phoenix WinNonlin® (Version 7.0). Areas under the concentration time curve (AUClast and AUCinf) were calculated using a linear trapezoidal rule.

Fmr1 KO2 mice [3] = assay: Open field test (hyperactivity) in Fmr1 KO2 mice; assay type: in vivo, mouse; settings: 10 mg/kg IP daily for 4 weeks
Procedure: as §1, with “Immediately after collection of blood, brain samples were collected and homogenized using ice-cold phosphate buffer saline.” left out
(§2) Tests were conducted at the end of the treatment, that is, 4th week, and mice were tested on one behavioral task a day. […] Activity was monitored by IR beam breaks and decoded using VersaDat software (AccuScan). […] The distance traveled for 30 min was measured in centimeter for all cases.

Fmr1 KO2 mice [4] = assay: Fear conditioning (associative learning) in Fmr1 KO2 mice; assay type: in vivo, mouse; settings: 10 mg/kg IP daily for 4 weeks
Procedure: as §1
Associative learning of an aversive sound followed by an electrical shock was used to analyze fear conditioning. […] Memory was tested 24 h after training, and freezing time was recorded for 5 min.

Fmr1 KO2 mice [5] = assay: Self-grooming (stereotype) in Fmr1 KO2 mice; assay type: in vivo, mouse; settings: 10 mg/kg IP daily for 4 weeks
Procedure: as §1, with “Immediately after collection of blood, brain samples were collected and homogenized using ice-cold phosphate buffer saline.” left out
(§3) Stereotype was evaluated by self-grooming. For this, mice were placed individually in a cage, after a 5-min habituation period, the time spent to grooming any part of the body was recorded for 3 min. […] The latency between attacks was measured for 3 min.

Fmr1 KO2 mice [6] = assay: Aggression test (latency between attacks) in Fmr1 KO2 mice; assay type: in vivo, mouse; settings: 10 mg/kg IP daily for 4 weeks
Procedure: as §1, with “Immediately after collection of blood, brain samples were collected and homogenized using ice-cold phosphate buffer saline.” left out
as §3

Fmr1 KO mice [7] = assay: Open field test (hyperactivity) in Fmr1 KO mice; assay type: in vivo, mouse; settings: 10 mg/kg IP for 4 weeks
Procedure: as §1, with “Immediately after collection of blood, brain samples were collected and homogenized using ice-cold phosphate buffer saline.” left out
as §2

Fmr1 KO mice [8] = assay: Three-chamber social test in Fmr1 KO mice; assay type: in vivo, mouse; settings: 10 mg/kg IP for 4 weeks
Procedure: as §1
The three-chamber test assesses cognition in the form of interest in social novelty. Testing occurs in a three-chambered box with openings between the chambers. […] The time spent in each chamber is quantified for 6 min.

DA metabolism = assay: DA levels and DA metabolic profile (HPLC) in brain areas of Fmr1 KO mice; assay type: in vivo, mouse; settings: FD44 IP for 4 weeks
Procedure: as §1, with “Immediately after collection of blood, brain samples were collected and homogenized using ice-cold phosphate buffer saline.” left out, “rule. […]” for “rule.”
Tissue samples were preserved at −80°C until analysis. […] DA and its metabolites were measured from supernatants by HPLC with an ESA Coulochem detector, according to Mena et al. ([1993]). […] Monoamine levels were identified by their retention time, and amounts were calculated against calibrated external standard solutions. […]

[9] = test system: Fmr1 KO, Fmr1 KO2, and WT mice; assay: Tolerability on treatment of mice; assay type: in vivo; settings: 10 mg/kg IP / 50 mg/kg PO
Procedure: as §1

NCS-1/Ric8a complex [10] = test system: NCS-1/Ric8a complex; parameters: method as in Mansilla et al., 2017; settings: cell lysate; ref Mansilla et al., 2017; cited from earlier work
neuronal cultures = test system: neuronal cultures; parameters: method as in Mansilla et al., 2017; settings: ref Mansilla et al., 2017; cited from earlier work
D1R = test system: D1R; parameters: method as in Mansilla et al., 2017; settings: ref Mansilla et al., 2017; cited from earlier work
D2R = test system: D2R; parameters: method as in Mansilla et al., 2017; settings: ref Mansilla et al., 2017; cited from earlier work
[11] = test system: D. melanogaster FMRP mutants; settings: Drosophila melanogaster FXS model (FMRP mutants or fmr1 RNAi strain), FD44 in the food; ref Mansilla et al., 2017; cited from earlier work
[12] = parameters: method as in Mansilla et al., 2017; settings: among compounds previously identified as NCS-1/Ric8a inhibitors; ref Mansilla et al., 2017; cited from earlier work

T1 sequence (P62166 2-190 limits assumed, one chain of several): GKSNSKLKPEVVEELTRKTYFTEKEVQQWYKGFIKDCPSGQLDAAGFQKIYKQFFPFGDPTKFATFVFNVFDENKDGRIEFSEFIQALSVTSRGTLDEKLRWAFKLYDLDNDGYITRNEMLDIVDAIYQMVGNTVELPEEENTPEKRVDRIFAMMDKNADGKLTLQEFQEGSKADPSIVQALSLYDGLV

For `O=C(CN1CCCCC1)NN1c2ccccc2Sc2ccccc21` [FD44], which “intensity and number of green fluorescence spots representing the NCS-1/Ric8a binding (PLA, microscopy)” value (NCS-1/Ric8a complex [1]; HEK293 co-transfected with NCS-1 and Ric8a-V5, 24 h) is on record?
The value was “reduced”.

And the “reduction in binding (PLA followed by flow cytometry, mean fluorescence intensity)” value (NCS-1/Ric8a complex [1]; HEK293 co-transfected with human NCS-1 and Ric8a-V5, last 24 h, four independent experiments)?
The value was 40%.

And the Cmax ([2]; IP, 10 mg/kg single dose, brain)?
The Cmax was 2560.16 ng/mL.

What about the Tmax ([2]; IP, 10 mg/kg single dose, brain, 10 mg/kg) of the same compound?
Its Tmax is 15 min.

What about the Brain-to-plasma ratio ([2]; IP, 10 mg/kg single dose) of the same compound?
Its Brain-to-plasma ratio is 2.48–7.65.

And the “time up to which brain concentrations were quantifiable” value ([2]; IP, 10 mg/kg single dose)?
Its value is “up to 480 min”.

And the “time up to which plasma concentrations were quantifiable” value ([2]; IP, 10 mg/kg single dose)?
The value was “up to 480 min”.

What about the Cmax ([2]; IP, 10 mg/kg single dose, plasma) of the same compound?
The Cmax was 981.19 ng/mL.

What about the Tmax ([2]; IP, 10 mg/kg single dose, plasma, 10 mg/kg) of the same compound?
The Tmax was 5 min.

What about the Cmax ([2]; PO, 50 mg/kg single dose, brain) of the same compound?
The Cmax was 5164.38 ng/mL.

What about the Tmax ([2]; PO, 50 mg/kg single dose, brain, 50 mg/kg) of the same compound?
Its Tmax is 15 min.

And the Brain-to-plasma ratio ([2]; PO, 50 mg/kg single dose)?
Its Brain-to-plasma ratio is 2.90 to 6.81.

What about the “time up to which brain concentrations were quantifiable” value ([2]; PO, 50 mg/kg single dose) of the same compound?
Its value is “up to 480 min”.

And the “time up to which plasma concentrations were quantifiable” value ([2]; PO, 50 mg/kg single dose)?
Its value is “up to 480 min”.

And the Cmax ([2]; PO, 50 mg/kg single dose, plasma)?
Its Cmax is 858.90 ng/mL.

And the Tmax ([2]; PO, 50 mg/kg single dose, plasma, 50 mg/kg)?
The Tmax was 15 min.

What about the “blood–brain barrier crossing” value ([2]; IP and PO PK study) of the same compound?
Its value is “perfectly crosses the blood–brain barrier”.

What about the “hyperactivity, distance traveled in the open field” value (Fmr1 KO2 mice [3]) of the same compound?
The value was “complete recovery”.

And the “associative learning, freezing response after fear conditioning” value (Fmr1 KO2 mice [4])?
Its value is “completely rescued impaired associative learning”.

And the “stereotype, self-grooming” value (Fmr1 KO2 mice [5])?
Its value is “restored”.

And the “aggression, latency between attacks” value (Fmr1 KO2 mice [6])?
Its value is “low level of aggressiveness similar to their WT counterparts”.

What about the “hyperactivity, distance traveled in the open field” value (Fmr1 KO mice [7]) of the same compound?
Its value is “normalizes”.

And the “social interest, time in chamber with unfamiliar vs familiar mouse (three-chamber test)” value (Fmr1 KO mice [8])?
Its value is “able to restore the impaired social interest”.

What about the “DA metabolism ratio (metabolites HVA + DOPAC/DA) increase in the limbic area” value (DA metabolism) of the same compound?
Its value is “reversed”.

And the “tolerability, clinical signs” value [9]?
The value was “well tolerated”.

And the “inhibitory effect in a binding assay in vitro (co-immunoprecipitation)” value (NCS-1/Ric8a complex [10])?
Its value is “almost total inhibitory effect”.

What about the “toxicity in neuronal cultures” value (neuronal cultures) of the same compound?
The value was “low toxicity”.

And the “interaction with dopamine receptor D1R” value (D1R)?
The value was “does not interact”.

And the “interaction with dopamine receptor D2R” value (D2R)?
Its value is “does not interact”.

What about the associative learning [11] of the same compound?
Its associative learning is “restored”.

And the synapse number [11]?
The synapse number was “restored”.

And the solubility profile [12]?
The solubility profile was “best solubility profile”.
